Laboratory results as given in ChEMBL document CHEMBL1143801, “Synthesis, SAR and antibacterial studies on novel chalcone oxazolidinone hybrids” (2007).
In brackets after ≈: the same amount, converted by molar mass.

Assays:
Type in all cases: functional
[1] = system: Staphylococcus aureus; experiment: Antibacterial activity against Staphylococcus aureus ATCC 33591
[2] = system: Enterococcus faecalis; experiment: Antibacterial activity against Enterococcus faecalis ATCC 29212
[3] = system: Enterococcus faecalis; experiment: Antibacterial activity against Enterococcus faecalis NCTC 12201
[4] = system: Staphylococcus aureus; experiment: Antibacterial activity against Staphylococcus aureus ATCC 29213
[5] = system: Staphylococcus aureus; experiment: Antibacterial activity against Staphylococcus aureus ATCC 49951
[6] = system: Enterococcus faecium; experiment: Antibacterial activity against Enterococcus faecium ATCC 12202

| Structure (SMILES) | MIC [1] [µg/mL] | MIC [2] [µg/mL] | MIC [3] [µg/mL] | MIC [4] [µg/mL] | MIC [5] [µg/mL] | MIC [6] [µg/mL] |
| --- | --- | --- | --- | --- | --- | --- |
| COc1ccc(/C=C/C(=O)c2ccc(N3C[C@H](CNC(C)=O)OC3=O)cc2)cc1OC | > 32 | > 32 | > 32 | > 32 | > 32 | > 32 |
| CC(=O)NC[C@H]1CN(c2ccc(/C=C/C(=O)c3c(F)cc(Cl)cc3Cl)cc2)C(=O)O1 | > 32 | > 32 | > 32 | > 32 | > 32 | > 32 |
| CC(=O)NC[C@H]1CN(c2ccc(C(=O)/C=C/c3ncc[nH]3)c(F)c2)C(=O)O1 | 16 (≈ 43 µM) | 16 (≈ 43 µM) | 16 (≈ 43 µM) | 16 (≈ 43 µM) | 16 (≈ 43 µM) | 16 (≈ 43 µM) |
| CC(=O)NC[C@H]1CN(c2ccc(C(=O)/C=C/c3ccco3)cc2)C(=O)O1 | 32 (≈ 90.3 µM) | 32 (≈ 90.3 µM) | 32 (≈ 90.3 µM) | 16 (≈ 45.2 µM) | 16 (≈ 45.2 µM) | 32 (≈ 90.3 µM) |
| CC(=O)NC[C@H]1CN(c2ccc(C(=O)/C=C/c3ccco3)c(F)c2)C(=O)O1 | 8 (≈ 21.5 µM) | 16 (≈ 43 µM) | 16 (≈ 43 µM) | 8 (≈ 21.5 µM) | 8 (≈ 21.5 µM) | 16 (≈ 43 µM) |
| CC(=O)NC[C@H]1CN(c2ccc(C(=O)/C=C/c3cccs3)c(F)c2)C(=O)O1 | 32 (≈ 82.4 µM) | 32 (≈ 82.4 µM) | 32 (≈ 82.4 µM) | 32 (≈ 82.4 µM) | 32 (≈ 82.4 µM) | 32 (≈ 82.4 µM) |
| CC(=O)NC[C@H]1CN(c2ccc(C(=O)/C=C/c3nccn3C)c(F)c2)C(=O)O1 | 32 (≈ 82.8 µM) | 32 (≈ 82.8 µM) | 32 (≈ 82.8 µM) | 32 (≈ 82.8 µM) | 32 (≈ 82.8 µM) | 32 (≈ 82.8 µM) |
| COc1cc(/C=C/C(=O)c2ccc(N3C[C@H](CNC(C)=O)OC3=O)cc2)cc(OC)c1OC | > 32 | > 32 | > 32 | > 32 | > 32 | > 32 |
| CC(=O)NC[C@H]1CN(c2ccc(C(=O)/C=C/c3ccccn3)c(F)c2)C(=O)O1 | 4 (≈ 10.4 µM) | 16 (≈ 41.7 µM) | 16 (≈ 41.7 µM) | 8 (≈ 20.9 µM) | 4 (≈ 10.4 µM) | 16 (≈ 41.7 µM) |
| COC(=S)NC[C@H]1CN(c2ccc(C(=O)/C=C/c3ccccn3)c(F)c2)C(=O)O1 | 0.25 (≈ 0.602 µM) | 2 (≈ 4.81 µM) | 1 (≈ 2.41 µM) | 0.5 (≈ 1.2 µM) | 1 (≈ 2.41 µM) | 2 (≈ 4.81 µM) |
| CC(=O)NC[C@H]1CN(c2ccc(N3CCOCC3)c(F)c2)C(=O)O1 [LINEZOLID] | 1 (≈ 2.96 µM) |  |  |  |  | 2 (≈ 5.93 µM) |
| CN[C@H](CC(C)C)C(=O)N[C@H]1C(=O)N[C@@H](CC(N)=O)C(=O)N[C@H]2C(=O)N[C@H]3C(=O)N[C@H](C(=O)N[C@H](C(=O)O)c4cc(O)cc(O)c4-c4cc3ccc4O)[C@H](O)c3ccc(c(Cl)c3)Oc3cc2cc(c3O[C@@H]2O[C@H](CO)[C@@H](O)[C@H](O)[C@H]2O[C@H]2C[C@](C)(N)[C@H](O)[C@H](C)O2)Oc2ccc(cc2Cl)[C@H]1O [VANCOMYCIN] |  | 2 (≈ 1.38 µM) | > 32 |  |  | > 32 |

Second part, the molecule after the results:

| MIC [1] [µg/mL] | MIC [2] [µg/mL] | MIC [3] [µg/mL] | MIC [4] [µg/mL] | MIC [5] [µg/mL] | MIC [6] [µg/mL] | Structure (SMILES) |
| --- | --- | --- | --- | --- | --- | --- |
| > 32 | > 32 | > 32 | > 32 | > 32 | > 32 | CC(=O)NC[C@H]1CN(c2ccc(/C=C/C(=O)c3ccccc3)cc2)C(=O)O1 |
| 32 (≈ 84.6 µM) | 32 (≈ 84.6 µM) | 32 (≈ 84.6 µM) | > 32 | 32 (≈ 84.6 µM) | 32 (≈ 84.6 µM) | CC(=O)NC[C@H]1CN(c2ccc(/C=C/C(=O)c3ccc(C)cc3)cc2)C(=O)O1 |
| > 32 | > 32 | > 32 | > 32 | > 32 | > 32 | COC(=O)c1ccc(/C=C/C(=O)c2ccc(N3C[C@H](CNC(C)=O)OC3=O)cc2)cc1 |
| 64 (≈ 167 µM) | > 64 | > 64 | > 64 | > 64 | > 64 | CC(=O)NC[C@H]1CN(c2ccc(/C=C/C(=O)c3cccc(F)c3)cc2)C(=O)O1 |
| 32 (≈ 78.2 µM) | 32 (≈ 78.2 µM) | 32 (≈ 78.2 µM) | 32 (≈ 78.2 µM) | 32 (≈ 78.2 µM) | 32 (≈ 78.2 µM) | CC(=O)NC[C@H]1CN(c2ccc(/C=C/C(=O)c3ccc([N+](=O)[O-])cc3)cc2)C(=O)O1 |
| > 32 | > 32 | > 32 | > 32 | > 32 | > 32 | CC(=O)NC[C@H]1CN(c2ccc(C(=O)/C=C/c3ccc(F)cc3)cc2)C(=O)O1 |
| > 32 | > 32 | > 32 | > 32 | > 32 | > 32 | COc1ccc(C(=O)/C=C/c2ccc(N3C[C@H](CNC(C)=O)OC3=O)cc2)cc1 |
| 32 (≈ 87.6 µM) | 64 (≈ 175 µM) | 64 (≈ 175 µM) | 32 (≈ 87.6 µM) | 32 (≈ 87.6 µM) | 64 (≈ 175 µM) | CC(=O)NC[C@H]1CN(c2ccc(C(=O)/C=C/c3ccccn3)cc2)C(=O)O1 |
| > 32 | > 32 | > 32 | > 32 | > 32 | > 32 | CC(=O)NC[C@H]1CN(c2ccc(C(=O)/C=C/c3ccccc3)cc2)C(=O)O1 |
